Measured values taken from PMC12394658, “Discovery of Zharp1-163 as a dual inhibitor of ferroptosis and necroptosis for the treatment of inflammatory disorders and kidney injury” (Cell Death Discovery, 2025).

Key:
Assay in all cases: biochemical
Design in all cases: Kinase selectivity panel of 81 human kinases, ADP-Glo or HTRF, per cent inhibition at 1 uM
DAPK1 = DAPK1 (Homo sapiens, UniProt P53355)
How it was run: (§1)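 Kinase-panel selectivity profiling of 81 kinases with compound at 1000 nM.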

DCAMKL2 = target: T1, DCAMKL2 (Homo sapiens, UniProt Q8N568)
T1 construct: gene DCLK2
How it was run: as §1

Erk7 = target: T2, Erk7 (Homo sapiens, UniProt Q8TD08)
T2 construct: gene MAPK15
How it was run: as §1

HGK = target: T3, HGK (Homo sapiens, UniProt O95819)
T3 construct: gene MAP4K4
T3 sequence (O95819 whole entry): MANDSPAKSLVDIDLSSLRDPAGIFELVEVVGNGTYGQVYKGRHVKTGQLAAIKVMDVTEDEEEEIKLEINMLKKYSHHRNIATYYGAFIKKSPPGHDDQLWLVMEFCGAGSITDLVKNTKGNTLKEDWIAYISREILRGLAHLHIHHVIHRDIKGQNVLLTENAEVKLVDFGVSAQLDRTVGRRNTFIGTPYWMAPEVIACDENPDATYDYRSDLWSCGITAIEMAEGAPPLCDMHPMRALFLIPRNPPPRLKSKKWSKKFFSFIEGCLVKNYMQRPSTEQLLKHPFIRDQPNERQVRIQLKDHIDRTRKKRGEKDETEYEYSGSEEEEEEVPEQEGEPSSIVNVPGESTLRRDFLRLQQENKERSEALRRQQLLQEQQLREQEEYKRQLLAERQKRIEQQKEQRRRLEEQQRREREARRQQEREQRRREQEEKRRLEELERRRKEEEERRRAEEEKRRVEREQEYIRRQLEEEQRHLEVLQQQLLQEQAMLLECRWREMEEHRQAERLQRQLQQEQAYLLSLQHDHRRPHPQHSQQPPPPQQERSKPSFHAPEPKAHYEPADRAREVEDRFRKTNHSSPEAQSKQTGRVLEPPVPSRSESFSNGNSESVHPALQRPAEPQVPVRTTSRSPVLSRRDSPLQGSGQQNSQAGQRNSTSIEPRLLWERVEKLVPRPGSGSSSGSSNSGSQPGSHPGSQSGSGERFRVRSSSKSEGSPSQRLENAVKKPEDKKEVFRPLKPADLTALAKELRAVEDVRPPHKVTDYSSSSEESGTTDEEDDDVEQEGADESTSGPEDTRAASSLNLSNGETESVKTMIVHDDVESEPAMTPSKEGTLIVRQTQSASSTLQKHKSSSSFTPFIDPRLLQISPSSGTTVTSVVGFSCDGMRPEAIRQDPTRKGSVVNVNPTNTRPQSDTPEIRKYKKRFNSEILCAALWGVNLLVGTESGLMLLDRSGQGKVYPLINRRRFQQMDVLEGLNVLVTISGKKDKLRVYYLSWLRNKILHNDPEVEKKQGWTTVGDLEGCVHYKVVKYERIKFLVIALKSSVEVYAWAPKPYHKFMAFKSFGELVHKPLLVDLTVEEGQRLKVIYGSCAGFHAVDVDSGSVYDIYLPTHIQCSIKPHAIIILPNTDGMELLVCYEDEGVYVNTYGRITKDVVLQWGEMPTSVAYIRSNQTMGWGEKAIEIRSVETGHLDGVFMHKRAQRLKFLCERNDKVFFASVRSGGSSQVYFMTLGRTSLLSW
How it was run: as §1

IGF1R = IGF1R (Homo sapiens, UniProt P08069)
How it was run: as §1

ITK = ITK (Homo sapiens, UniProt Q08881)
ITK, sequence (Q08881 whole entry): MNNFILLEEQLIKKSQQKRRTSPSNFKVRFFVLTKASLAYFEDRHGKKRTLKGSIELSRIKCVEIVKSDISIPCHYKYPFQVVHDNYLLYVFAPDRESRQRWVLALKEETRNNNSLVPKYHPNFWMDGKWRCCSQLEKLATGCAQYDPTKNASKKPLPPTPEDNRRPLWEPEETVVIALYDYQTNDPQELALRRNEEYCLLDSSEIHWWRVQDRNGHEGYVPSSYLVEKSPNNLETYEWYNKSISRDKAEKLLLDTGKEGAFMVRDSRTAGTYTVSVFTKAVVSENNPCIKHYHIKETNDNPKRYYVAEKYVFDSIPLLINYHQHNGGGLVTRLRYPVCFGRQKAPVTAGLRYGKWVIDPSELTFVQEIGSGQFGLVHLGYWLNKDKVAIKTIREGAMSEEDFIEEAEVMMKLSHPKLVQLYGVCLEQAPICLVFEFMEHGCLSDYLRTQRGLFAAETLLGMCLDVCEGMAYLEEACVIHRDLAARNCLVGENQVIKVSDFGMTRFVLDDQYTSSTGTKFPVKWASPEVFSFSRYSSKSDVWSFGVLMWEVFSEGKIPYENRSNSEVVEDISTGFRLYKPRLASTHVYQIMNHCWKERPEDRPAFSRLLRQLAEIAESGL
How it was run: as §1

JNK1 = target: T4, JNK1 (Homo sapiens, UniProt P45983)
T4 construct: gene MAPK8
T4 sequence (P45983 whole entry): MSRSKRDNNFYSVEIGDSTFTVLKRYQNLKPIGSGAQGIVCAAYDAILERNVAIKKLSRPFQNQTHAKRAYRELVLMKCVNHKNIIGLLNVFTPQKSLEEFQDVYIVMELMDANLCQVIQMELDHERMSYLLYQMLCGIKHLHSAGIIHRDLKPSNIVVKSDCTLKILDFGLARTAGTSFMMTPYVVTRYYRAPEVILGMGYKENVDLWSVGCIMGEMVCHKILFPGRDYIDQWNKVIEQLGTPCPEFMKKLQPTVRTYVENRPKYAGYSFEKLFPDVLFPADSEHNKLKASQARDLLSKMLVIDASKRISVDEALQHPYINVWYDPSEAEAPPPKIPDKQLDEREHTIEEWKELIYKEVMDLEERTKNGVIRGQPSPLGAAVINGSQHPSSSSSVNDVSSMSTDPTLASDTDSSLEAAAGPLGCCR
How it was run: as §1

NEK2 = NEK2 (Homo sapiens, UniProt P51955)
How it was run: as §1

PIK3CA = PIK3CA (Homo sapiens, UniProt P42336)
How it was run: as §1

PKACα = target: T5, PKACα (Homo sapiens, UniProt P17612)
T5 construct: gene PRKACA
How it was run: as §1

PLK2 = PLK2 (Homo sapiens, UniProt Q9NYY3)
How it was run: as §1

RIPK2 = RIPK2 (Homo sapiens, UniProt O43353)
RIPK2, sequence (O43353 whole entry): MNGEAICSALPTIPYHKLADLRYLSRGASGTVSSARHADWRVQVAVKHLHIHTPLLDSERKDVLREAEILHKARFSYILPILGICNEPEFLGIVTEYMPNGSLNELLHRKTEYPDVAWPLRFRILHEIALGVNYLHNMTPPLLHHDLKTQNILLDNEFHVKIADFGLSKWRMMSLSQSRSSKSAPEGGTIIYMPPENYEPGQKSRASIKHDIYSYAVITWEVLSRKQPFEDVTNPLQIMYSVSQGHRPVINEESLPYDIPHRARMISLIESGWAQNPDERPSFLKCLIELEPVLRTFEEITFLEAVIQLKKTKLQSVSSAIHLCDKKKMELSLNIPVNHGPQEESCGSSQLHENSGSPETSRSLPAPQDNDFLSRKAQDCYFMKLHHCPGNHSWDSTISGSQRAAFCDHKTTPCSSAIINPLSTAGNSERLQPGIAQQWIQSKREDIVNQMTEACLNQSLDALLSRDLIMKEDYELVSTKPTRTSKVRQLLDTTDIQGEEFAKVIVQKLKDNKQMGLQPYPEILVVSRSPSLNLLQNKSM
How it was run: as §1

SGK = target: T6, SGK (Homo sapiens, UniProt O00141)
T6 construct: gene SGK1
T6 sequence (O00141 whole entry): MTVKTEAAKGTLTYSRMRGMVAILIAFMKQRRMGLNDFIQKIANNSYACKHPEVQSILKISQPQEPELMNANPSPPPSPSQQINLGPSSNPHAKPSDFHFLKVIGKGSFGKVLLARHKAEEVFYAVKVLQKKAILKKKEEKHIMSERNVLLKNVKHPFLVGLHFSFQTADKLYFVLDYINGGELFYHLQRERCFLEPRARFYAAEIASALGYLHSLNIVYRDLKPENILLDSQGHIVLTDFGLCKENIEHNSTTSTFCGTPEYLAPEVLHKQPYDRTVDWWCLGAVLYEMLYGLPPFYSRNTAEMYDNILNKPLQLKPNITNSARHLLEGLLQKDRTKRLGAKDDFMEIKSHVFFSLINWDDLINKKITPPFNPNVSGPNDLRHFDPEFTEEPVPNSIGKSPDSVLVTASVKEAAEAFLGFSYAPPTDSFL
How it was run: as §1

SYK = SYK (Homo sapiens, UniProt P43405)
How it was run: as §1

DAPK1, sequence (P53355 whole entry): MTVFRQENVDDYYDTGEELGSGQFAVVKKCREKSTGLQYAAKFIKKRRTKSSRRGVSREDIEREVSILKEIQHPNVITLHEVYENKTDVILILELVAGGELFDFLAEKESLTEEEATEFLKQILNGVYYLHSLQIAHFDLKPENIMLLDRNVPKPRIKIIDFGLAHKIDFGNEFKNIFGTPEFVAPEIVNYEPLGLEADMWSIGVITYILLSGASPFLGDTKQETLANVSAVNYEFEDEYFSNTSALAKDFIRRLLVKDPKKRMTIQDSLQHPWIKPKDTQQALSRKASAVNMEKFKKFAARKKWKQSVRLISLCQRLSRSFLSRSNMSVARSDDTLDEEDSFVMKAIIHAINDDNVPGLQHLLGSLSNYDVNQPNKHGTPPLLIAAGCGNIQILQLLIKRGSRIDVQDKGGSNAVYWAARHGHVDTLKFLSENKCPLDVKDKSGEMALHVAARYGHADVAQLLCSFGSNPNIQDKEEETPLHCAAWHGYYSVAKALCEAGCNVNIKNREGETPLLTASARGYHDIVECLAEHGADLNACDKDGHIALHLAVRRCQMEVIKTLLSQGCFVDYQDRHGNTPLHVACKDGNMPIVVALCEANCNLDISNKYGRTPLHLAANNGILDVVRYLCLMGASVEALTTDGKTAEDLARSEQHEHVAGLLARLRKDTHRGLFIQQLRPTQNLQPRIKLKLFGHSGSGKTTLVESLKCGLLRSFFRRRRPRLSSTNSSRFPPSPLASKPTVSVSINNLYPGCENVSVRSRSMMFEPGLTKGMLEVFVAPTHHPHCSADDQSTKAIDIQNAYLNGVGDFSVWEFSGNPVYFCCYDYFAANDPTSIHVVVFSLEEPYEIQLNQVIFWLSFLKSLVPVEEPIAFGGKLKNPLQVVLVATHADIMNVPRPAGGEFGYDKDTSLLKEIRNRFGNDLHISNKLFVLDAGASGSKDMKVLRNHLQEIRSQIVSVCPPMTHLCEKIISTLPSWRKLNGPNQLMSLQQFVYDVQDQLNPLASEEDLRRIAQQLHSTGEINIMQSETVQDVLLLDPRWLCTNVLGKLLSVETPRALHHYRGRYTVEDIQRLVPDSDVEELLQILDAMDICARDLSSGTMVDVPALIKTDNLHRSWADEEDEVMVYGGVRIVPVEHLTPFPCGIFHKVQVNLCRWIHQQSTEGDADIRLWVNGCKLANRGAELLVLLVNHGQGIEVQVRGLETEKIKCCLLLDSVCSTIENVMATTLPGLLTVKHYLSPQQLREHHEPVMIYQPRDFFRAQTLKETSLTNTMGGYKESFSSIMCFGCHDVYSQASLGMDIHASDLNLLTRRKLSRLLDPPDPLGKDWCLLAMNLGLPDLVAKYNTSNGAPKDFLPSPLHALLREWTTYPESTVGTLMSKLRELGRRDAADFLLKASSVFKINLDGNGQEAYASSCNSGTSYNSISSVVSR

For `Nc1cn2cc(-c3cnc4c(c3)N(C(=O)OC3CCCCC3)CCO4)ccc2n1` [Zharp1-163], the inhibition at 1 µM (DAPK1; replicate Data1) was 9.17%, the inhibition at 1 µM (DAPK1; replicate Data2) was -5.62% and the inhibition at 1 µM (DCAMKL2; replicate Data1) was 5.19%. For the same compound, the inhibition at 1 µM (DCAMKL2; replicate Data2) was 1.92%, the inhibition at 1 µM (Erk7; replicate Data1) was 5.82% and the inhibition at 1 µM (Erk7; replicate Data2) was 0.29%. For the same compound, the inhibition at 1 µM (HGK; replicate Data1) was 4.09%, the inhibition at 1 µM (HGK; replicate Data2) was 11.5% and the inhibition at 1 µM (IGF1R; replicate Data1) was -8.23%. It also gave an inhibition at 1 µM (IGF1R; replicate Data2) of -5.7%, an inhibition at 1 µM (ITK; replicate Data1) of 19.4% and an inhibition at 1 µM (ITK; replicate Data2) of 18.5%. The inhibition at 1 µM (JNK1; replicate Data1) was 6.2%, the inhibition at 1 µM (JNK1; replicate Data2) was 5.09% and the inhibition at 1 µM (NEK2; replicate Data1) was -4.5%. It also gave an inhibition at 1 µM (NEK2; replicate Data2) of 1.76%, an inhibition at 1 µM (PIK3CA; replicate Data1) of 37.1% and an inhibition at 1 µM (PIK3CA; replicate Data2) of 35.8%. The inhibition at 1 µM (PKACα; replicate Data1) was -0.64%, the inhibition at 1 µM (PKACα; replicate Data2) was 3.94% and the inhibition at 1 µM (PLK2; replicate Data1) was -2.91%. It also gave an inhibition at 1 µM (PLK2; replicate Data2) of -19.7%, an inhibition at 1 µM (RIPK2; replicate Data1) of -0.35% and an inhibition at 1 µM (RIPK2; replicate Data2) of -3.05%. It also gave an inhibition at 1 µM (SGK; replicate Data1) of 2.39%, an inhibition at 1 µM (SGK; replicate Data2) of 0.81% and an inhibition at 1 µM (SYK; replicate Data1) of 5.12%. For the same compound, the inhibition at 1 µM (SYK; replicate Data2) was 4.56%.
